Measurements reported in US10709707B2, “Methods of treating ocular conditions” (Oyster Point Pharma, Inc., priority 2016, dated 2020).
Read-outs that look alike come from different tables or passages of the source.

What was measured:
[1] = Single dose pharmacokinetics, rat; assay type: in vivo, Sprague-Dawley rat; settings: for AUC(0-t): read-out: AUC0-1
hERG channel = hERG channel (Homo sapiens, UniProt Q12809); assay: Cardiovascular safety, hERG channel in vitro; assay type: cell-based
a4b4 = a4b4 (Homo sapiens, UniProt P30926+P43681); assay: Receptor binding a4b4
a4b4, sequence (P43681 29-627 limits assumed): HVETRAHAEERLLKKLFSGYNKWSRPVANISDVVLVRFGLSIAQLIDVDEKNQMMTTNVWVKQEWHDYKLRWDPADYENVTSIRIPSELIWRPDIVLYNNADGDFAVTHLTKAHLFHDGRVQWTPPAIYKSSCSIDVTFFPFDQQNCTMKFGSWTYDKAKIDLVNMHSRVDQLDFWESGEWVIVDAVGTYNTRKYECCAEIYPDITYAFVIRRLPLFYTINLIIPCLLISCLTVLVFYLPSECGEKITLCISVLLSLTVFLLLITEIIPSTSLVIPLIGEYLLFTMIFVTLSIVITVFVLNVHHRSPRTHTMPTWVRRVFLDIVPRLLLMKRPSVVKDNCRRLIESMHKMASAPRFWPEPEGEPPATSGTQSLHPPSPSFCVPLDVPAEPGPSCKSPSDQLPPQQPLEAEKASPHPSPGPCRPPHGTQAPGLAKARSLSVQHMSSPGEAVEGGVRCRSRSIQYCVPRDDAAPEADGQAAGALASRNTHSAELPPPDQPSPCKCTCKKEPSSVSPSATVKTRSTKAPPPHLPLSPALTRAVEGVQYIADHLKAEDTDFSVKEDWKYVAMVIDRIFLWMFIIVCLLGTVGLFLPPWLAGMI
a4b4, sequence (P30926 22-498): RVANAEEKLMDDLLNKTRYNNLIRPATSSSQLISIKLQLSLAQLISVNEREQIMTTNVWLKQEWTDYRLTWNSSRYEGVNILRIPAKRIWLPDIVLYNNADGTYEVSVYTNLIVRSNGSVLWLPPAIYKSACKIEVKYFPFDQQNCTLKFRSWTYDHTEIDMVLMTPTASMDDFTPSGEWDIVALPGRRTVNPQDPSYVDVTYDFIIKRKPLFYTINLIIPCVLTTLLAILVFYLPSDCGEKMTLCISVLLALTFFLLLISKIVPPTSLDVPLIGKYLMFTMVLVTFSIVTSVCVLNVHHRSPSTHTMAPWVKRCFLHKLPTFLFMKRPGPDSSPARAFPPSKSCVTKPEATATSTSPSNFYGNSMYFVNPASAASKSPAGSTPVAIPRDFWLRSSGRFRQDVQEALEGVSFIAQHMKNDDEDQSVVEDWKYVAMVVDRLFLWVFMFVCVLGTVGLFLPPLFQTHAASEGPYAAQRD

[2] = clinical studies with oral Compound 1; assay type: in vivo, human
Method: The oral form of Compound 1-A, Compound 1, has been studied in several clinical trials. A total of 108 human subjects have received Compound 1: 69 healthy volunteers in Phase 1 studies, 23 subjects in a Phase 1b gastroparesis study, and 16 subjects with constipation predominant irritable bowel syndrome (IBS-C) in a Phase 2a study. Subjects were exposed to doses of Compound 1 ranging from 5 mg through and including 200 mg.

[3] = binding to red blood cells and blood/plasma ratio; assay type: in vitro ADME; settings: broadly species and concentration independent
Method: Binding of Compound 1 to red blood cells was 28 to 54% directly after spiking and 41 to 63% at 0.5 and 1 hour after spiking. The blood/plasma ratios ranged from 0.78 to 1.26 and were broadly species and concentration independent.

[4] = Sprague-Dawley, plasma, S-D rat, 30 mg/kg [14C]-Compound 1, oral
[5] = male, Sprague-Dawley, plasma, S-D rat, 0.3 mg/kg Compound 1, oral
[6] = male, Sprague-Dawley, plasma, S-D rat, 3 mg/kg Compound 1, oral

hERG channel, sequence (Q12809 whole entry): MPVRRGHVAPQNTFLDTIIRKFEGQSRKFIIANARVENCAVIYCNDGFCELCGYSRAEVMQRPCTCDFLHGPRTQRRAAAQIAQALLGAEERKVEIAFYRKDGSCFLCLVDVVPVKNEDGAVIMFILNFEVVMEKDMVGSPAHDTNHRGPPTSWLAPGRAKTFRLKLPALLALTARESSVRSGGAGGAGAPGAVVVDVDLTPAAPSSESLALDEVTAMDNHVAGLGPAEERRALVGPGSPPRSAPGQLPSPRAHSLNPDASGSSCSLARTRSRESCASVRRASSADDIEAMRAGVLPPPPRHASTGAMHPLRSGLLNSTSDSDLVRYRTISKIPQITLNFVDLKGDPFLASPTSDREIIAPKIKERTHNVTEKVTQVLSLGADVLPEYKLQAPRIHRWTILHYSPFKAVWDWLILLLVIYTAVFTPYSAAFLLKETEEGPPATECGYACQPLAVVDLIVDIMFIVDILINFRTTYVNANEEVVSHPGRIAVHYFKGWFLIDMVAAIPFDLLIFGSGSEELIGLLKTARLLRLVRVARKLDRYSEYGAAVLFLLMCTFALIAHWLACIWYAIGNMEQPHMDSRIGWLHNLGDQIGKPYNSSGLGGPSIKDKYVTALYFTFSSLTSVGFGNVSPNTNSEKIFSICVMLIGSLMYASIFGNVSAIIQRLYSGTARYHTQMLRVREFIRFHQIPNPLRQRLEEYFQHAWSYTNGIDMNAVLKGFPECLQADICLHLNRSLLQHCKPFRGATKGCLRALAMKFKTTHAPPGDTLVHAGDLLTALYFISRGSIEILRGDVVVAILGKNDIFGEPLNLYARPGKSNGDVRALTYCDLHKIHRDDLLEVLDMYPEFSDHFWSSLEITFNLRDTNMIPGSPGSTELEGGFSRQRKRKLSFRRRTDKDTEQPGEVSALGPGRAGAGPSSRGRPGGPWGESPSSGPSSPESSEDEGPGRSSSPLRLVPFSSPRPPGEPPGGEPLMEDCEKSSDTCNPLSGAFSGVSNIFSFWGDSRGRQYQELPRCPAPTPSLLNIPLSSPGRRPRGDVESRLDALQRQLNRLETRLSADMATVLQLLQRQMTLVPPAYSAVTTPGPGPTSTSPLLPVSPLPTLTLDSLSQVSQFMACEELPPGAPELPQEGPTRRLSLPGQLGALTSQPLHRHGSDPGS

`C(=C\[C@H]1CCNC1)/c1cncnc1` [Compound 1, (R)-5-((E)-2-pyrrolidin-3-ylvinyl)pyrimidine] gave a Cmax [1, 4] of 1710 ng/mL, a Tmax [1, 4] of 0.25 h and an AUC(0-t) ([1]; Sprague-Dawley, plasma, S-D rat, 30 mg/kg [14C]-Compound 1, oral, t = 168 h) of 3310 ng·h/mL. The half-life ([1]; Sprague-Dawley, plasma, S-D rat, 30 mg/kg [14C]-Compound 1, oral, read-out: t1/2 (converted)) was 1.2 h, the “Cmax and AUC0-24 vs dose” value ([1]; male rats, 3 mg/kg group vs 0.3 mg/kg, oral) was “higher than dose-proportional” and the Cmax [1, 5] was 6.51 ng/mL. It also gave a Tmax [1, 5] of 0.5 h, an AUC(0-t) ([1]; male, Sprague-Dawley, plasma, S-D rat, 0.3 mg/kg Compound 1, oral, t = 25 h) of 13.5 ng·h/mL and a half-life ([1]; male, Sprague-Dawley, plasma, S-D rat, 0.3 mg/kg Compound 1, oral, read-out: t1/2 (converted)) of 1.4 h. It also gave a Cmax [1, 6] of 169 ng/mL, a Tmax [1, 6] of 0.167 h and an AUC(0-t) ([1]; male, Sprague-Dawley, plasma, S-D rat, 3 mg/kg Compound 1, oral, t = 25 h) of 211 ng·h/mL. The half-life ([1]; male, Sprague-Dawley, plasma, S-D rat, 3 mg/kg Compound 1, oral, read-out: t1/2 (converted)) was 1.4 h, the Kp ([1]; male, Sprague-Dawley, rat, brain, oral, 0.3 or 3 mg/kg orally, read-out: brain exposure as share of plasma exposure) was roughly 0.15 and the half-life ([1]; male, Sprague-Dawley, rat, plasma and brain, po, 0.3 or 3 mg/kg orally, read-out: half-life (plasma and brain concentrations) (converted)) was 1.4 h. The IC50 (hERG channel) was 285 µM, the Ki (a4b4) was 0.68 µM and the “changes in physical exam, blood or urine laboratory measurements or ECG measurements” value ([2]; 108 human subjects, oral doses 5 mg to 200 mg) was “No clinical noteworthy changes”. The adverse events reported ([2]; all studies, oral doses 5 mg to 200 mg) was “typically GI-related”, the “changes in ECG measurements” value ([2]; clinical studies to date) was “no noteworthy changes” and the blood plasma ratio [3] was 0.78 to 1.26.
